Read-outs that look alike come from different tables or passages of the source.
Key:
Type in all cases: biochemical
[1] = target: T1, TYK2 (aa 871-1187, catalytic domain, GST-tag) (Homo sapiens, UniProt P29597); assay: JAK kinase assay (HTRF, phosphorylation of TK substrate-biotin), TYK2; details: ATP at Km (13 μM)
T1 construct: JAK1 (aa 850-1154) and TYK2 (aa 871-1187) are expressed with an N-terminally fused GST-tag; GST (N); purchased Carna Biosciences, Inc; host or cells: baculovirus expression system
T1 sequence (P29597 871-1187): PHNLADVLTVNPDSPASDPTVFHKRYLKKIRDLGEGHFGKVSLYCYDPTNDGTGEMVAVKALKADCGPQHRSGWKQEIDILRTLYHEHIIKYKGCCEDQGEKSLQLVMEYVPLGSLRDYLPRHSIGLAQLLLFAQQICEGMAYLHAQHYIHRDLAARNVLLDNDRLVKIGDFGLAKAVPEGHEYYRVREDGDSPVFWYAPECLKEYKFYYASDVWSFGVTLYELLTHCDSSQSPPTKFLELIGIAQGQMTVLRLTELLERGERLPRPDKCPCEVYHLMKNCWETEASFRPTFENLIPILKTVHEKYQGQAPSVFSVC
Summary of the method: (§1)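 EC50 values come from HTRF signal of phospho-peptide detected by STK Ab Cryptate and Streptavidin-XL665 after overnight incubation. Reactions ran 20-30 min at RT in Hepes pH 7.0, 0.01% BSA, 1 mM DTT, with ATP at Km: 7, 4, 2 and 13 μM for JAK1, JAK2, JAK3, TYK2.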

[2] = target: T2, JAK1 (aa 850-1154, catalytic domain, GST-tag) (Homo sapiens, UniProt P23458); assay: JAK kinase assay (HTRF, phosphorylation of TK substrate-biotin), JAK1; details: ATP at Km (7 μM)
T2 construct: JAK1 (aa 850-1154) and TYK2 (aa 871-1187) are expressed with an N-terminally fused GST-tag; GST (N); purchased Carna Biosciences, Inc; host or cells: baculovirus expression system
Summary of the method: as §1

[3] = target: T3, JAK2 (catalytic domain, His-tag) (Homo sapiens, UniProt O60674); assay: JAK kinase assay (HTRF, phosphorylation of TK substrate-biotin), JAK2; details: ATP at Km (4 μM)
T3 construct: All four purified enzymes contain only the catalytic domain; His (N); purchased Carna Biosciences, Inc; host or cells: baculovirus expression system
Summary of the method: as §1

[4] = target: T4, JAK3 (catalytic domain, His-tag) (Homo sapiens, UniProt P52333); assay: JAK kinase assay (HTRF, phosphorylation of TK substrate-biotin), JAK3; details: ATP at Km (2 μM)
T4 construct: All four purified enzymes contain only the catalytic domain; His (N); purchased Carna Biosciences, Inc; host or cells: baculovirus expression system
Summary of the method: as §1

[5] = read-out: TYK2 kinase inhibitory activity (EC50 indicator)
[6] = read-out: JAK1 kinase inhibitory activity (EC50 indicator)
[7] = read-out: JAK2 kinase inhibitory activity (EC50 indicator)
[8] = read-out: JAK3 kinase inhibitory activity (EC50 indicator)
[9] = HTRF assay, read-out: TYK2 kinase inhibitory activity (EC50 indicator)
[10] = HTRF assay, read-out: JAK1 kinase inhibitory activity (EC50 indicator)
[11] = HTRF assay, read-out: JAK2 kinase inhibitory activity (EC50 indicator)
[12] = HTRF assay, read-out: JAK3 kinase inhibitory activity (EC50 indicator)

T4 sequence (P52333 822-1111 limits assumed): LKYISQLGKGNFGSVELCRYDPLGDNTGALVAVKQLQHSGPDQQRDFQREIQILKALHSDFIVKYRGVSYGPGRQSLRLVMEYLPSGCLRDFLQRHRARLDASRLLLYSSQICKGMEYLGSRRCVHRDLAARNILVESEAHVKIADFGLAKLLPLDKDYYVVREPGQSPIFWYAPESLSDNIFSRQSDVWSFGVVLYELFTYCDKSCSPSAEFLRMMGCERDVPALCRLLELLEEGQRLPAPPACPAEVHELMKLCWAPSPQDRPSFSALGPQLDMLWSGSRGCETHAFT
T3 sequence (O60674 849-1124 limits assumed): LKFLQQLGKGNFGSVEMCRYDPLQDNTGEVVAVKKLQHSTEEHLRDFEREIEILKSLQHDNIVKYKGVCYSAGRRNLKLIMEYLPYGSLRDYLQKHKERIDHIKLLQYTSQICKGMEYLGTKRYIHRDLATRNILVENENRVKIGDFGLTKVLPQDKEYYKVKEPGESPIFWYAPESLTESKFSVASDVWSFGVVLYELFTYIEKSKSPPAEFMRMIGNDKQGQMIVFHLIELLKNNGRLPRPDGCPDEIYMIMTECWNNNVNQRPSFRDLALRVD
T2 sequence (P23458 850-1154): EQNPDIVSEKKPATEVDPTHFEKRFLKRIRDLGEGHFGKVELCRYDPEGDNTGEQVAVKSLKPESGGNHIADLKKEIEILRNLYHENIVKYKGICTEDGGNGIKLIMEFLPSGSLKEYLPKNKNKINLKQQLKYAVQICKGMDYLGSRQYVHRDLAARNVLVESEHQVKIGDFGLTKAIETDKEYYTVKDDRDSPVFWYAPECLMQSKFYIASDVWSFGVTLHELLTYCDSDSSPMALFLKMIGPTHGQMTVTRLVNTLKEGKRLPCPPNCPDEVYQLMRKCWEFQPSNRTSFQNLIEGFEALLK

Compound | EC50 [1, 5] [nM] | EC50 [2, 6] [nM] | EC50 [3, 7] [nM] | EC50 [4, 8] [nM] | other results
O=C(Cc1ccncc1)N1[C@@H]2CC[C@@H]1CN(c1ncnc3[nH]ccc13)C2 [Example 171, 2-Pyridin-4-yl-1-[3-(7H-pyrrolo[2,3-d]pyrimidin-4-yl)-3,8-diaza-bicyclo[3.2.1]oct-8-yl]-ethanone] | > 500 | 100 to 500 | 100 to 500 | > 500 | –
COC(=O)c1cc2c(N3CCN(C(=O)Cc4ccc(CC#N)cc4)C4(CC4)C3)ncnc2[nH]1 [Example 122, 4-{4-[2-(4-Cyanomethyl-phenyl)-acetyl]-4,7-diaza-spiro[2.5]oct-7-yl}-7H-pyrrolo[2,3-d]pyrimidine-6-carboxylic acid methyl ester] | > 500 | > 500 | > 500 | > 500 | –
CS(=O)(=O)c1ccc2[nH]c(C(=O)N3C4CCC3CN(c3ncnc5[nH]ccc35)C4)cc2c1 [Example 130, (5-Methanesulfonyl-1H-indol-2-yl)-[3-(7H-pyrrolo[2,3-d]pyrimidin-4-yl)-3,8-diaza-bicyclo[3.2.1]oct-8-yl]-methanone] | 100 to 500 | < 100 | < 100 | < 100 | –
O=C(c1cc2cc(F)ccc2[nH]1)N1CCN(c2ncnc3[nH]ccc23)CC12CC2 [Example 361, (5-Fluoro-1H-indol-2-yl)-[7-(7H-pyrrolo[2,3-d]pyrimidin-4-yl)-4,7-diaza-spiro[2.5]oct-4-yl]-methanone] | – | – | – | – | EC50 [1, 9]: < 100 nM; EC50 [2, 10]: < 100 nM; EC50 [3, 11]: < 100 nM; EC50 [4, 12]: < 100 nM
N#Cc1cccc(CC(=O)N2CCN(c3nc(N)nc4[nH]ccc34)CC23CC3)c1 [Example 311, 3-{2-[7-(2-Amino-7H-pyrrolo[2,3-d]pyrimidin-4-yl)-4,7-diaza-spiro[2.5]oct-4-yl]-2-oxo-ethyl}-benzonitrile] | – | – | – | – | EC50 [1, 9]: > 500 nM; EC50 [2, 10]: 100 to 500 nM; EC50 [3, 11]: 100 to 500 nM; EC50 [4, 12]: 100 to 500 nM
CSCCC(=O)N1CCN(c2ncnc3[nH]ccc23)CC12CC2 [Example 455, 3-Methylsulfanyl-1-[7-(7H-pyrrolo[2,3-d]pyrimidin-4-yl)-4,7-diaza-spiro[2.5]oct-4-yl]-propan-1-one] | – | – | – | – | EC50 ([1]; HTRF assay, read-out: TYK2 kinase inhibitory activity (EC50)): 100 to 500 nM; EC50 ([2]; HTRF assay, read-out: JAK1 kinase inhibitory activity (EC50)): < 100 nM; EC50 ([3]; HTRF assay, read-out: JAK2 kinase inhibitory activity (EC50)): < 100 nM; EC50 ([4]; HTRF assay, read-out: JAK3 kinase inhibitory activity (EC50)): < 100 nM
CCCS(=O)(=O)Nc1ccc(C(=O)N2CCN(c3ncnc4[nH]ccc34)CC23CC3)cc1 [Example 431, Propane-1-sulfonic acid {4-[7-(7H-pyrrolo[2,3-d]pyrimidin-4-yl)-4,7-diaza-spiro[2.5]octane-4-carbonyl]-phenyl}-amide] | – | – | – | – | EC50 [1, 9]: 100 to 500 nM; EC50 [2, 10]: < 100 nM; EC50 [3, 11]: < 100 nM; EC50 [4, 12]: 100 to 500 nM
CCCS(=O)(=O)N1[C@@H]2CC[C@H]1CN(c1ncnc3[nH]ccc13)C2 [Example 51, 4-[8-(Propane-1-sulfonyl)-3,8-diaza-bicyclo[3.2.1]oct-3-yl]-7H-pyrrolo[2,3-d]pyrimidine] | > 500 | 100 to 500 | 100 to 500 | > 500 | –

Second part, led by results:

EC50 [1, 5] [nM] | EC50 [2, 6] [nM] | EC50 [3, 7] [nM] | EC50 [4, 8] [nM] | Compound | other results
< 100 | < 100 | < 100 | < 100 | Cn1c(C(=O)N2CCN(c3ncnc4[nH]ccc34)CC23CC3)ccc1S(N)(=O)=O [Example 187, 1-Methyl-5-[7-(7H-pyrrolo[2,3-d]pyrimidin-4-yl)-4,7-diaza-spiro[2.5]octane-4-carbonyl]-1H-pyrrole-2-sulfonic acid amide] | –
> 500 | 100 to 500 | 100 to 500 | > 500 | O=C(c1ccc2cc[nH]c2c1)N1CCN(c2ncnc3[nH]ccc23)CC12CC2 [Example 36, (1H-Indol-6-yl)-[7-(7H-pyrrolo[2,3-d]pyrimidin-4-yl)-4,7-diazaspiro[2.5]oct-4-yl]methanone] | –
> 500 | < 100 | < 100 | 100 to 500 | O=C(c1cccc(O)n1)N1CCN(c2ncnc3[nH]ccc23)CC12CC2 [Example 166, (6-Hydroxy-pyridin-2-yl)-[7-(7H-pyrrolo[2,3-d]pyrimidin-4-yl)-4,7-diaza-spiro[2.5]oct-4-yl]-methanone] | –

Reference: patent publication US9346809B2 (LEO PHARMA A/S, priority 2009, dated 2016)
